US10900091B2, “miR-133a as a marker for colorectal cancer” (The Chinese University of Hong Kong, priority 2019, dated 2021)
Entries after “also recorded” stand apart in the source; their conditions may differ.

Columns and labels:
[1] = test system: CRC cell lines (HT29, SW1116, HCT116, HCT116p53−/−, RKO, DLD1); assay: MTT cell viability assay: oxaliplatin sensitization after ectopic miR-133a expression; assay type: cell-based, human; conditions: CRC cell lines with ectopic expression of miR-133a; oxaliplatin treatment; FIG. 4
Method: (§1) Human miR-133a precursor (PM10413) was purchased from Thermo Fisher Scientific. […] Cells were transfected with miRNAs using Lipofectamine 2000 (Invitrogene). Cells transfected with miRNA were harvested 12 h to 48 h post-transfection.
After 24 h of transfection, cells were collected and seeded (500-1000/well) in a fresh 96-well plate for 5 days. Cell viability was determined using the conversion of 3-(4,5-dimethylthiazol-2-yl)-2,5-diphenyltetrazolium bromide (MTT) to formazan via mitochondrial oxidation. MTT solution was then added to each well at a final concentration of 0.2 mg/ml per well and the plates were incubated at 37° C. for another 1 h. After incubation, 200 μl of dimethyl sulfoxide was added to each well to dissolve the formazan formed and the absorbance was measured at 570 nm using a spectrophotometer. All the experiments were repeated in three independent experiments in triplicate.
To validate the role of miR-133a in oxaliplatin sensitization in vitro, miR-133a was expressed in the microsatellite stable (HT29, SW1116) and microsatellite instable CRC cell lines (HCT116, HCT116^p53−/−, RKO, DLD1), respectively. 50% inhibitory concentration (IC50) of each cell lines was calculated by means of MTT assay. Restoration of miR-133a was sufficient to result in a 1.5 to 2.9 fold sensitization to oxaliplatin treatment in all the tested cell lines (FIG. 4).

human ATP7B 3′-UTR = assay: Dual-luciferase reporter assay, ATP7B 3′UTR; assay type: cell-based
Method: (§2) Wild-type or mutanted human ATP7B, ABCC1 and GCLC 3′-UTR were cloned into pMIR-REPORT vector (Thermo Fisher Scientific) at the SacI and SpeI sites, respectively. Co-transfection of reporter plasmids and miRNA in 24-well plates were carried out with lipofectamine 2000 as described by the manufacture. Per well, 195 ng luciferase report plasmid, 5 ng pRL-cytomegalovirus (CMV) vector and 15 pmole miRNA were applied. Cells were harvested 48 h post-transfection and luciferase activities were analyzed by the dual-luciferase reporter assay system (Promega, Madison, Wis.).
(§3) To characterize the chemosensitizing property of miR-133a to oxaliplatin treatment, miR-133a targets that regulated the metabolism of oxaliplatin were searched for. Increased drug efflux and activation of detoxification system are two major aspects that induce Platinum-based drugs resistance (15). Previous studies indicate that ATPase Cu++ transporting beta polypeptide (ATP7B), ATP-binding cassette sub-family C member 1 (ABCC1) and γ-glutamylcysteine liganse (GCLC) regulated Platinum-based drugs efflux and detoxification (16-21). […] Furthermore, their predicted 3′UTR binding sites, as well as their mutant form, were attached to firefly luciferase reporter gene, respectively. miR-133a repressed wild-type ATP7B, ABCC1, and GCLC-3′UTR reporter activity for about 64%, 56% and 42%, respectively (FIG. 5A, P<0.05).

human ABCC1 3′-UTR = assay: Dual-luciferase reporter assay, ABCC1 3′UTR; assay type: cell-based
Method: as §2, §3

human GCLC 3′-UTR = assay: Dual-luciferase reporter assay, GCLC 3′UTR; assay type: cell-based
Method: as §2, §3

ATP7B = assay: Endogenous ATP7B expression after miR-133a transfection (qPCR, western blot); assay type: cell-based, human
Method: as §1
(§4) Protein concentration was measured by the Bradford DC protein assay (Bio-Rad, Hercules, Calif.). 5-20 μg of protein from each sample were separated on 10% Bis-Tris-polyacrylamide gel through electrophoresis and blotted onto nitrocellulose membranes (GE Healthcare, Piscataway, N.J.). Blots were immunostained with primary antibodies at 4° C. overnight and secondary antibody at room temperature for 1 h. Protein was visualized using ECL Plus Western Blotting Detection Reagents (GE Healthcare). Independent experiments were performed at least twice.
(§5) To characterize the chemosensitizing property of miR-133a to oxaliplatin treatment, miR-133a targets that regulated the metabolism of oxaliplatin were searched for. Increased drug efflux and activation of detoxification system are two major aspects that induce Platinum-based drugs resistance (15). Previous studies indicate that ATPase Cu++ transporting beta polypeptide (ATP7B), ATP-binding cassette sub-family C member 1 (ABCC1) and γ-glutamylcysteine liganse (GCLC) regulated Platinum-based drugs efflux and detoxification (16-21). […]

ABCC1 = assay: Endogenous ABCC1 expression after miR-133a transfection (qPCR, western blot); assay type: cell-based, human
Method: as §1, §4, §5

GCLC = assay: Endogenous GCLC expression after miR-133a transfection (qPCR, western blot); assay type: cell-based, human
Method: as §1, §4, §5

stage IV CRC patients = assay: Response of stage IV CRC patients to oxaliplatin-based first-line treatment (RECIST); assay type: in vivo, human; conditions: 42 stage IV CRC patients, oxaliplatin-based first-line therapy
Text: A cohort of 42 pairs of tumor and adjacent normal tissue FFPE blocks obtained from stage IV CRC patients who had received oxaliplatin-based treatment as first-line therapy at Prince of Wales Hospital between 2003 and 2010, and with known clinico-oncologic outcomes were identified from the prospectively collected database. Patients were classified into responders and non-responders group according to RECIST guideline (7). Responders are defined as the patients achieving complete response (CR) and partial response (PR), and non-responder group as patients with stable disease (SD) and progressive disease (PD). Overall survival (OS) was calculated from the operation day to the date of death or the last visit with censoring. The progress free survival (PFS) during first-line chemotherapy was determined from the operation day to the first-line progression as documented by either CT scan, positron emission tomography/CT scan, or Carcinoembryonic antigen (CEA). Forty-six mCRC patients received oxaliplatin-based treatment as first-line therapy at Beijing Oncology Hospital were used as a validation cohort (BJ cohort). […]
miR-133a level was next evaluated in 42 pairs paraffin blocks of tumor and adjacent normal tissues from stage IV CRC patients who had received oxaliplatin-based treatment. […]

[2] = qPCR, HCT116 and DLD1 (also HEK293)
[3] = western blot, HCT116, DLD1 and HEK293 (293T in the source)

In the case of “hsa-miR-133a-3p (UUUGGUCCCCUUCAACCAGCUG; precursor form, further chemistry not given here; listed as Homo sapiens) [Human miR-133a precursor purchased from Thermo Fisher Scientific, transfected into cells]”, the “IC50 compared with the control group” value [1] is reported as “lower”, the “effect on mutant ATP7B-3′UTR reporter activity” value (human ATP7B 3′-UTR; mutant 3′UTR) is reported as “no inhibition effect” and the “repression of wild-type ATP7B-3′UTR reporter activity” value (human ATP7B 3′-UTR; wild-type 3′UTR, P<0.05) is reported as “about 64%”. The “effect on mutant ABCC1-3′UTR reporter activity” value (human ABCC1 3′-UTR; mutant 3′UTR) was “no inhibition effect”, the “repression of wild-type ABCC1-3′UTR reporter activity” value (human ABCC1 3′-UTR; wild-type 3′UTR, P<0.05) was about 56% and the “effect on mutant GCLC-3′UTR reporter activity” value (human GCLC 3′-UTR; mutant 3′UTR) was “no inhibition effect”. The “repression of wild-type GCLC-3′UTR reporter activity” value (human GCLC 3′-UTR; wild-type 3′UTR, P<0.05) was about 42%, the “ATP7B mRNA level” value (ATP7B; [2]) was “significantly suppressed; also recorded: remarkably reduced; also recorded: decreased” and the ATP7B protein level (ATP7B; [3]) was “remarkably reduced; also recorded: decreased”. The “ABCC1 mRNA level” value (ABCC1; [2]) was “significantly suppressed; also recorded: remarkably reduced; also recorded: decreased”, the ABCC1 protein level (ABCC1; [3]) was “remarkably reduced; also recorded: decreased” and the “GCLC mRNA level” value (GCLC; [2]) was “significantly suppressed; also recorded: remarkably reduced; also recorded: decreased”. The GCLC protein level (GCLC; [3]) was “remarkably reduced; also recorded: decreased”.
For `O=C1[O][Pt]2([NH][C@@H]3CCCC[C@H]3[NH]2)[O]C1=O` [oxaliplatin, Oxaliplatin], the objective response rate (stage IV CRC patients) was 29%.
